Values of other authors as cited in US6342488B1, “Phosphonorisperidone and sulforisperidone compositions and methods” (priority 1998, dated 2002).

Settings: condition associated with torsades de pointes

With `Cc1nc2n(c(=O)c1CCN1CCC(c3noc4cc(F)ccc34)CC1)CCCC2O` (centres unmarked) [hydroxyrisperidone, 9-hydroxyrisperidone] as the molecule, how does the “prolongation of QT interval” value read?
The value was “implicated in a prolongation of QT interval”.

Which “prolongation of QT interval” value does the source give for `Cc1nc2n(c(=O)c1CCN1CCC(c3noc4cc(F)ccc34)CC1)CCCC2` [risperidone, Risperidone] here?
The value was “implicated in a prolongation of QT interval”.
